Measurements from article PMC12406203 (Journal of Medicinal Chemistry, 2025).

Tests used:
Experiment in all cases: KINOMEscan
Format in all cases: binding
PIK3C2B = target: T1, PIK3C2B (Homo sapiens, UniProt O00750)
T1 construct: purchased Eurofins DiscoverX, LLC; host or cells: E. coli BL21-derived host (T7 phage) or HEK-293

TSSK1B = target: T2, TSSK1B (Homo sapiens, UniProt Q9BXA7)
T2 construct: purchased Eurofins DiscoverX, LLC; host or cells: E. coli BL21-derived host (T7 phage) or HEK-293
T2 sequence (Q9BXA7 1-367): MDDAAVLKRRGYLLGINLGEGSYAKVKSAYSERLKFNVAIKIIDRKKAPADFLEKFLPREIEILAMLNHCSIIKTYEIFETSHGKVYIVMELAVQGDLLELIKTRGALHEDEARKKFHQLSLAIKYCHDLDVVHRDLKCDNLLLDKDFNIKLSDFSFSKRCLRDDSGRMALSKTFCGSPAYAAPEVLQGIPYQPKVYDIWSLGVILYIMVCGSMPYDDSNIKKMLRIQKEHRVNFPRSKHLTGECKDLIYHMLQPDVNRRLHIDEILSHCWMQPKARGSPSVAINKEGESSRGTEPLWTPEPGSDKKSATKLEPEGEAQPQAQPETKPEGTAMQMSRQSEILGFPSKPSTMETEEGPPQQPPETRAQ

ROCK2 = target: T3, ROCK2 (Homo sapiens, UniProt O75116)
T3 construct: purchased Eurofins DiscoverX, LLC; host or cells: E. coli BL21-derived host (T7 phage) or HEK-293

[1] = target: T4, JAK2(JH1domain-catalytic) (Homo sapiens, UniProt O60674)
T4 construct: JAK2(JH1domain-; purchased Eurofins DiscoverX, LLC; host or cells: E. coli (T7 phage) or HEK-293

ULK2 = target: T5, ULK2 (Homo sapiens, UniProt Q8IYT8)
T5 construct: purchased Eurofins DiscoverX, LLC; host or cells: E. coli BL21-derived host (T7 phage) or HEK-293
T5 sequence (Q8IYT8 1-1036): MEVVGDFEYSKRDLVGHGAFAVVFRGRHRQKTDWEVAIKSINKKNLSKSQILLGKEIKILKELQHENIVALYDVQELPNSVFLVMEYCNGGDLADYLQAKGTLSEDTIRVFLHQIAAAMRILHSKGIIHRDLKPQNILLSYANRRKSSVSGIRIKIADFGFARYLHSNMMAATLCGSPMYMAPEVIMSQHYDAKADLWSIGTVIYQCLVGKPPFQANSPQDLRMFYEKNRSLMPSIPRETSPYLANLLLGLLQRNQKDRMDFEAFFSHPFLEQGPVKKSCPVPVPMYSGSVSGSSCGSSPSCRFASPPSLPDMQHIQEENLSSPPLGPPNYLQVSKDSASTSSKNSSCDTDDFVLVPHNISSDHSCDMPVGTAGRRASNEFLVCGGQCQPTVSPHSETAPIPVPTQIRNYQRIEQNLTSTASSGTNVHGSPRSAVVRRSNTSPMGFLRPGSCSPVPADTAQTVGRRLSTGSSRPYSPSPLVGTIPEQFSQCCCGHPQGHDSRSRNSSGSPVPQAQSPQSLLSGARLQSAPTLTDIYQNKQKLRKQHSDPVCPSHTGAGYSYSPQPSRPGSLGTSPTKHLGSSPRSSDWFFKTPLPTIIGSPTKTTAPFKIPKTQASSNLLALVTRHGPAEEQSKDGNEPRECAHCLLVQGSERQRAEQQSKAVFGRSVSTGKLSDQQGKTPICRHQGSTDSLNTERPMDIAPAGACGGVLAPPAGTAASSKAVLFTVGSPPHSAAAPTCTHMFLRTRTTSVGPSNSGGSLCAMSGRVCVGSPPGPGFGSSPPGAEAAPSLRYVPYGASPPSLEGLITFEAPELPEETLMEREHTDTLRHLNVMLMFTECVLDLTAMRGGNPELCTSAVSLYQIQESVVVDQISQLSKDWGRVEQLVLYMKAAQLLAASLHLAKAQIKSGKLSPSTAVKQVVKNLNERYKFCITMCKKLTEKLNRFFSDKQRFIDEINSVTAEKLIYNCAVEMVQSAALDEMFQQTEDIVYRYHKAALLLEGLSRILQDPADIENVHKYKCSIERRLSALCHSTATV

ABL1-nonphosphorylated = target: T6, ABL1-nonphosphorylated (Homo sapiens, UniProt P00519)
T6 construct: purchased Eurofins DiscoverX, LLC; host or cells: E. coli BL21-derived (T7 phage) or HEK-293

PIK3CG = target: T7, PIK3CG (Homo sapiens, UniProt P48736)
T7 construct: purchased Eurofins DiscoverX, LLC; host or cells: E. coli BL21-derived host (T7 phage) or HEK-293

AURKA = target: T8, AURKA (Homo sapiens, UniProt O14965)
T8 construct: purchased Eurofins DiscoverX, LLC; host or cells: E. coli BL21-derived (T7 phage) or HEK-293
T8 sequence (O14965 1-403): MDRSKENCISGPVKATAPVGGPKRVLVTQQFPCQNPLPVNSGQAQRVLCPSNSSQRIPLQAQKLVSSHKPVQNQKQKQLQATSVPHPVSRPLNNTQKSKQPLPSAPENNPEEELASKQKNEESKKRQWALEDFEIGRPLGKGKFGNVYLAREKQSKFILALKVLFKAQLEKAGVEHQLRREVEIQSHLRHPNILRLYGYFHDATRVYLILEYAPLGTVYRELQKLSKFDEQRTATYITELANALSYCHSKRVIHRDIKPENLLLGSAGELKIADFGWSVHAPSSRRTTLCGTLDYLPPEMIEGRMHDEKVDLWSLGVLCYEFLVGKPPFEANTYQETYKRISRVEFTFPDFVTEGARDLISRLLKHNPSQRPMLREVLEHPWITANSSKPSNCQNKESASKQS

T4 sequence (O60674 849-1124 limits assumed): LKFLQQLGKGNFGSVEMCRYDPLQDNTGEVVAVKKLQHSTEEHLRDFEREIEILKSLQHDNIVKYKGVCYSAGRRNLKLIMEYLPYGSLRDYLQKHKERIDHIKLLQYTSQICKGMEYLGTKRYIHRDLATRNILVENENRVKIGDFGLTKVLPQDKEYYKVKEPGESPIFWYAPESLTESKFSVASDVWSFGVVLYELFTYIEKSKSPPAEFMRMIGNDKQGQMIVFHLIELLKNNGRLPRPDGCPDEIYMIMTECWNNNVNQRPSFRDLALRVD
T6 sequence (P00519 whole entry): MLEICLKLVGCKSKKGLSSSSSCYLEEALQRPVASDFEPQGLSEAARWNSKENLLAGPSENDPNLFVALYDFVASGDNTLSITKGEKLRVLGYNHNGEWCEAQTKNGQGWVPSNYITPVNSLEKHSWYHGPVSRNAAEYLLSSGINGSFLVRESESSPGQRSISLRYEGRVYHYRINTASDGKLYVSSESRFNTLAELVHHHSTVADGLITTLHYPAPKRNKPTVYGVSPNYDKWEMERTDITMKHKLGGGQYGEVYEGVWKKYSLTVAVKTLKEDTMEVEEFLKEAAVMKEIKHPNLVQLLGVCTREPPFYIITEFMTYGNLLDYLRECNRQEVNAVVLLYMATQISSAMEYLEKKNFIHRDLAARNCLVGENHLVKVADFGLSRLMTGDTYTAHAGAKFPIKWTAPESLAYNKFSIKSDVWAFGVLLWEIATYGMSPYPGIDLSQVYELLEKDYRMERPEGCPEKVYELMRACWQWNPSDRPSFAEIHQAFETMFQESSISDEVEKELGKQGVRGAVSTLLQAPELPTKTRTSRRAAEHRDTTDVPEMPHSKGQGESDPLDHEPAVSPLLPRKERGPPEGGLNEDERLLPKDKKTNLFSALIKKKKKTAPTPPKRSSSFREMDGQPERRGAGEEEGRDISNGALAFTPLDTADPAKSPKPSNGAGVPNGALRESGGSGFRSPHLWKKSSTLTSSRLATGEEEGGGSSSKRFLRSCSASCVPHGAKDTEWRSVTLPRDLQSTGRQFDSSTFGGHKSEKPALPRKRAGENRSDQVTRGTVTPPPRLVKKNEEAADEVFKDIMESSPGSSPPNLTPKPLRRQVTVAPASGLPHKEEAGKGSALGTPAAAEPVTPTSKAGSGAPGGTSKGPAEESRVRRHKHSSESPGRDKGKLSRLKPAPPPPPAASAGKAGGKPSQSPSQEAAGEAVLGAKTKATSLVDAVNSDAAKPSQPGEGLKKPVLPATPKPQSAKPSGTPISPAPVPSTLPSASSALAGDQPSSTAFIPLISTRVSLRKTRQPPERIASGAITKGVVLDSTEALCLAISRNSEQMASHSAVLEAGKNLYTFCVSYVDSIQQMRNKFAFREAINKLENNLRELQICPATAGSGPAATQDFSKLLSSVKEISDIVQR
T3 sequence (O75116 whole entry): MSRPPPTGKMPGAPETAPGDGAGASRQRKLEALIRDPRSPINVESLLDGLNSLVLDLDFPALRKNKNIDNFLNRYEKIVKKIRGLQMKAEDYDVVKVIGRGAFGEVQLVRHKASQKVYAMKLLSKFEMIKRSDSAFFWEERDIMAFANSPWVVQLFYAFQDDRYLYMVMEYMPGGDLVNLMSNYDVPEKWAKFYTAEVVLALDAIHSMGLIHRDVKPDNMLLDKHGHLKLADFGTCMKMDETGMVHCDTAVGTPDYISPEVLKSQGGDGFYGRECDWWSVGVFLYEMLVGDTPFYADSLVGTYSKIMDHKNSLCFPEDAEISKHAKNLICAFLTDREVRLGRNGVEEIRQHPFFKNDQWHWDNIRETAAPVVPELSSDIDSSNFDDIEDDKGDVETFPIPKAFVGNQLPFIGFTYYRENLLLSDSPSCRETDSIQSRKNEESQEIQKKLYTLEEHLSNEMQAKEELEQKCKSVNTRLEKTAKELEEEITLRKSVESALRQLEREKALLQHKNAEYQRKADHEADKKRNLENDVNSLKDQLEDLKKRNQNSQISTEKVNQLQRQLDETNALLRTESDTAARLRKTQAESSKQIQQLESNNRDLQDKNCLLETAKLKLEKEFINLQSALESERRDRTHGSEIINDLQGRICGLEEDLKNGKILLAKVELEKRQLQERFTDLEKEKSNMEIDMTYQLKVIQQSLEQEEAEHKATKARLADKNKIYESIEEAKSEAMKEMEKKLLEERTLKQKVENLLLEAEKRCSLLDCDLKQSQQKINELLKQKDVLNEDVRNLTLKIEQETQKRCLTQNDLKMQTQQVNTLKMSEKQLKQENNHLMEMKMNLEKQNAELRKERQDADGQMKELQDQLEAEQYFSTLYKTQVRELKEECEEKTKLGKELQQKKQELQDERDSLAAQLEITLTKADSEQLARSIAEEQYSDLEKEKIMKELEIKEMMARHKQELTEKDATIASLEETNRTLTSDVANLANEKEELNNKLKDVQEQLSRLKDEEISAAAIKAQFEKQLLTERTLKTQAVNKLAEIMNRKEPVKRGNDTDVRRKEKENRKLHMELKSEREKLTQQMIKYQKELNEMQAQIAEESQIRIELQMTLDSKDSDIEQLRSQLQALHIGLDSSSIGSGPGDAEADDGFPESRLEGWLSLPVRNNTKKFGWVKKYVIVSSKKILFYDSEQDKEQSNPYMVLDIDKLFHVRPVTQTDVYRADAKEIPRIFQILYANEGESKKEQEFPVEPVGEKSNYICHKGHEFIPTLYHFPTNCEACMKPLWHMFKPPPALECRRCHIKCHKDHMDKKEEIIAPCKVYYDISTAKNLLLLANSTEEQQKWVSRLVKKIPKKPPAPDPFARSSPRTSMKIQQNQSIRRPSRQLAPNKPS
T1 sequence (O00750 whole entry): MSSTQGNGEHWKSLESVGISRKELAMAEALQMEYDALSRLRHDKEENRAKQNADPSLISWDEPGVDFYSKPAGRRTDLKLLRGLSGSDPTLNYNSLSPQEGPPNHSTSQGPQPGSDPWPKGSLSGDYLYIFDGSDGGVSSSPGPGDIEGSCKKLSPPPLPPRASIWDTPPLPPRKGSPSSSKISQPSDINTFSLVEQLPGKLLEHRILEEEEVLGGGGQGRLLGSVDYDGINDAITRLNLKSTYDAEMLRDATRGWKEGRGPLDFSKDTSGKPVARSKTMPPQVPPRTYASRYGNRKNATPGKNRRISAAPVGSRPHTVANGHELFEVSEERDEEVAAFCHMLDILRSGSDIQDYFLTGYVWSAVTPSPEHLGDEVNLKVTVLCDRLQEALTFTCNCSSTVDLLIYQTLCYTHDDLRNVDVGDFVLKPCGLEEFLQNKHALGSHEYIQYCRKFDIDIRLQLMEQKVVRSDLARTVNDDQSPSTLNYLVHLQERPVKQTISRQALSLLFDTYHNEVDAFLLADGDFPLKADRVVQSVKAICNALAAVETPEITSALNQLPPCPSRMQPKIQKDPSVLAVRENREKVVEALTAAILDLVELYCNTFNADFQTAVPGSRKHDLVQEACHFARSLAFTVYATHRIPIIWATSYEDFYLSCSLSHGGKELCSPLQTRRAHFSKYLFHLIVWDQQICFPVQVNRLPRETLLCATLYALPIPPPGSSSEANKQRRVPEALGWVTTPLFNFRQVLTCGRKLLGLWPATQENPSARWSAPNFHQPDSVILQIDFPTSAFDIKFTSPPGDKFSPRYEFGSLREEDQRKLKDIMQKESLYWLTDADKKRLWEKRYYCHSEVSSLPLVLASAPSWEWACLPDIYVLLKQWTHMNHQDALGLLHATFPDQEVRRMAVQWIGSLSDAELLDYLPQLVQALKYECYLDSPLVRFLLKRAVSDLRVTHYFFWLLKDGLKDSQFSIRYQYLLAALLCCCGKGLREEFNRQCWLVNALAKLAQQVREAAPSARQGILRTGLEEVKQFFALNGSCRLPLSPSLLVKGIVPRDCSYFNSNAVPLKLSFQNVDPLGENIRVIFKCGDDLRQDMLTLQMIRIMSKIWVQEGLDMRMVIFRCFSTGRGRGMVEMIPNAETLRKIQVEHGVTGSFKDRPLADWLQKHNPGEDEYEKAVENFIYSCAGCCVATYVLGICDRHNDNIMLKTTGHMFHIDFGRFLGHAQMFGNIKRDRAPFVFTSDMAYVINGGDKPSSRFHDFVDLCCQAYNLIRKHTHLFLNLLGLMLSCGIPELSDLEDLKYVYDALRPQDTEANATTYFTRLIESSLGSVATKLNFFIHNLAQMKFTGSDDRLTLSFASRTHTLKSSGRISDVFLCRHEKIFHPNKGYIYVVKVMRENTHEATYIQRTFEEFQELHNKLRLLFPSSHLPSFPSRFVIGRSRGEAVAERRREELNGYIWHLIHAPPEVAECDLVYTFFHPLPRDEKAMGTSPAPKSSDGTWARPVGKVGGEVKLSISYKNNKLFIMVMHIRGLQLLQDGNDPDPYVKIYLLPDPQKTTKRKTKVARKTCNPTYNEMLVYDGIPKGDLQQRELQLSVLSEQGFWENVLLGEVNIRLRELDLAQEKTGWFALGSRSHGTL

| SMILES | RA @ 1000nM (PIK3C2B) | RA @ 10000nM (PIK3C2B) | RA @ 1000nM (TSSK1B) | RA @ 10000nM (TSSK1B) | RA @ 1000nM (ROCK2) | RA @ 10000nM (ROCK2) | RA @ 1000nM [1] | RA @ 10000nM [1] | RA @ 1000nM (ULK2) | RA @ 10000nM (ULK2) | RA @ 1000nM (ABL1-nonphosphorylated) | RA @ 10000nM (ABL1-nonphosphorylated) | RA @ 1000nM (PIK3CG) | RA @ 10000nM (PIK3CG) | RA @ 1000nM (AURKA) | RA @ 10000nM (AURKA) |
| --- | --- | --- | --- | --- | --- | --- | --- | --- | --- | --- | --- | --- | --- | --- | --- | --- |
| CC(C)Cn1ncc2cc(Cc3ccc(F)cc3F)c(C(=O)NCCN(C)C)cc21 [Compound 94, 5-(2,4-Difluorobenzyl)-N-(2-(dimethylamino)ethyl)-1-isobutyl-1H-indazole-6-carboxamide] | 90% | 82% | 77% | 89% | 87% | 96% | 98% | 100% | 71% | 88% | 85% | 97% | 86% | 85% | 96% | 93% |
| CN(C)CCNC(=O)c1cc2c(cnn2CC2CCCCC2)cc1Cc1ccc(F)cc1F [Compound 95, 1-(Cyclohexylmethyl)-5-(2,4-difluorobenzyl)-N-(2-(dimethylamino)ethyl)-1H-indazole-6-carboxamide] | 91% | 91% | 100% | 79% | 83% | 100% | 100% | 100% | 77% | 75% | 90% | 90% | 92% | 97% | 95% | 93% |
